This passage reports IC50 results from ChEMBL document CHEMBL5729101, “CaMKII inhibitors and uses thereof” (2022).

This experiment can be described thus: In Vitro CaMKIIδ Activity Assay: The inhibition of CaMKII activity was evaluated using a coupled assay measuring ADP released following ATP hydrolysis and phosphor-transfer to the peptide substrate AC3 (KKALHRQETVDAL; SEQ ID NO: 1) (1). A full length, C-terminal His/Gln tagged CaMKIIδ construct was used.
For orientation: IC50 means the concentration needed to halve the response being measured. As to `NCCNc1cccc(-c2ccnc3[nH]c4ccccc4c23)c1`, the IC50 is less than 0.1 µM.

For `Clc1cncc(-c2ccnc3[nH]c4ccccc4c23)c1`, the half-inhibitory concentration (IC50) entry is “in the range around 55 µM”. Under `NCCCNc1cccc(-c2ccnc3[nH]c4ccccc4c23)c1` stands less than 0.1 µM; under `c1ccc2c(c1)[nH]c1nccc(-c3cnn(C4CCNCC4)c3)c12`, “in the range around 55 µM”; under `NCCNc1cccc(-c2ccnc3[nH]c4ccc(Cl)cc4c23)c1`, less than 0.1 µM. Take `COc1ccc2c(c1)[nH]c1nccc(-c3cccc(NCCN)c3)c12`: the IC50 was less than 0.1 µM.

As to `Cc1ccc2[nH]c3nccc(-c4cccc(NCCN)c4)c3c2c1`, the IC50 is less than 0.1 µM. For the compound `Cc1ccc2c(c1)[nH]c1nccc(-c3cccc(NCCN)c3)c12`, the half-inhibitory concentration (IC50) was less than 0.1 µM. As for `c1ccc2c(c1)[nH]c1nccc(-c3cnc(N4CCNCC4)s3)c12`, the entry is “in the range around 55 µM”; as for `c1cc(-c2ccnc3[nH]c4ccccc4c23)cc(-n2ccnc2)c1`, “in the range around 55 µM”; as for `Cc1nn(C2CCNCC2)cc1-c1ccnc2[nH]c3ccccc3c12`, “in the range around 55 µM”.

Take `c1cc(-c2ccnc3[nH]c4ccccc4c23)nc(N2CCNCC2)c1`: the IC50 was less than 0.1 µM. As for `NCCCOc1cccc(-c2ccnc3[nH]c4ccccc4c23)c1`, the IC50 was less than 0.1 µM.

For the compound `NCc1cccc(-c2ccnc3[nH]c4ccccc4c23)c1`, the IC50 entry was “in the range around 55 µM”. As for `c1ccc2c(c1)[nH]c1nccc(-n3cc(C4CCNCC4)nn3)c12`, the entry is “in the range around 55 µM”; as for `C(=C/c1ccnc2[nH]c3ccccc3c12)/CN1CCNCC1`, “in the range around 55 µM”. As for `C(=C\c1ccnc2[nH]c3ccccc3c12)/CN1CCNCC1`, the entry is “in the range around 55 µM”; as for `Clc1cnccc1-c1ccnc2[nH]c3ccccc3c12`, “in the range around 55 µM”; as for `NCCOc1cccc(-c2ccnc3[nH]c4ccccc4c23)c1`, less than 0.1 µM.
